Measured values reported in patent US20180230182A1, “HYPERPOLARIZATION OF AMINO ACID RESIDUES FOR PRODUCING HYPERPOLARIZED PEPTIDES” (Cedars-Sinai Medical Center, priority 2017, published 2018).

Assay: 13C hyperpolarization by Para Hydrogen Induced Polarization (PHIP) with Goldman RF transfer sequence
Format: physicochemical
Settings: non-deuterated, natural abundance 13C
Excerpt: Our objective was to test a model system of polarization that can be incorporated into peptide sequence. Dehydroalanine is an unnatural amino acid with a methylene group instead of the normal methyl side chain for alanine. Several publications laid out the framework on synthesizing peptides containing this reactive amino acid side chain double bond. (Okeley N M, Zhu Y, van der Donk W A. Facile Chemoselective Synthesis of Dehydroalanine-Containing Peptides†. Organic Letters. 2000; 2(23):3603-6). The double bond of dehydroalanine is ideally positioned for PHIP to generate a polarized ^13C carboxyl nucleus with the resulting product an alanine amino acid residue. We utilized a purchased chemical equivalent resembling dehydroalanine in a peptide chain with the terminal carboxyl and amine protected by functional groups (FIG. 1). […] The 3JHH scalar coupling (J) constant was kept at 7.47 Hz, the 3JHH value was determined by proton spectroscopy. All measured samples were combined and lyophilized to dryness, then and dissolved in 2.5 mL of diH2O and scanned (^13C spectroscopy) for 17 hours with a repetition time of 50 seconds. […]

## C=C(NC(C)=O)C(=O)OC [MAA, methyl 2-acetamidoacrylate]
13C carboxyl carbon of the alanine product after 3 second para-hydrogenation of 24 mM MAA in deuterium oxide, 1.4 mT PHIP instrument
  polarization reached with the best set of scalar coupling constants: 0.1±0.07%
Approximated from the Boltzmann thermal equilibrium signal, 13C spectroscopy at 9.4T
  maximum polarization from the best sequence: ~0.2%
